Literature values as cited in publication PMC12805357, “Cooperative ligand binding in a bacterial heme-based oxygen sensor” (The Journal of Biological Chemistry, 2025).

What was measured:
[1] = sperm whale myoglobin
[2] = parameters: method as in earlier work; details: myoglobins; ref 7 of the supplement (Faulkner et al., 1995)

n (Hill coefficient), O2 binding [1]: 0.95 ± 0.05
Kd ([1]; read-out: Kd, equilibrium oxygen affinity): 830 to 1500 nM
Substance: sperm whale myoglobin (swMb): sperm whale myoglobin, literature comparison protein
Midpoint 1 (mV vs SHE) [2]: 47 mV vs SHE
